Test results taken from US20220323406A1, “METHODS AND COMPOSITIONS FOR DIFFERENTIATING STEM CELLS” (Massachusetts Institute of Technology, priority 2019, published 2022).
“Also recorded” adds a separate entry of the source.

Assays:
Format in all cases: cell-based, mouse
[1] = system: ENR+CD organoids (ISC to Paneth cell differentiation); experiment: Secondary (validation) screen: LYZ.S CCh-stimulated lysozyme secretion, 2.5-D 384-well ENR+CD organoids; details: for Dose.FC.LYZ.S: 6-day ENR+CD, vs ENR+CD+DMSO
[2] = system: ENR+CD organoids, stem II/III cells; experiment: Single-cell RNA-sequencing (Seq-Well) of organoid differentiation time course
Text: For time points beyond 2 days, media was refreshed every other day. Following the Seq-Well protocol Applicants followed a standard library preparation, sequencing, and alignment process (see Methods).
Single-cell RNA-sequencing. A single-cell suspension was obtained from organoids cultured under conditions for the differentiation time course as described above. Applicants utilized the Seq-Well platform for massively parallel scRNA-seq to capture transcriptomes of single cells on barcoded mRNA capture beads. […] In brief, 20,000 cells from one organoid condition were loaded onto one array containing 100,000 barcoded mRNA capture beads. The loaded arrays containing cells and beads were then sealed using a polycarbonate membrane with a pore size of 0.01 μm, which allows for exchange of buffers but retains biological molecules confined within each microwell. Subsequent exchange of buffers allows for cell lysis, transcript hybridization, and bead recovery before performing reverse transcription en masse. Following reverse transcription and exonuclease treatment to remove excess primers, PCR amplification was carried out using KAPA HiFi PCR Mastermix with 2,000 beads per 50 μL reaction volume. Libraries were then pooled and purified using Agencourt AMPure XP beads (Beckman Coulter, A63881) by a 0.6×SPRI followed by a 0.8×SPRI and quantified using Qubit hsDNA Assay (Thermo Fisher). Libraries were constructed using the Nextera Tagmentation method on a total of 800 pg of pooled cDNA library per sample. […] Arrays were sequenced with an Illumina NovaSeq System. The read structure was paired end with Read 1 starting from a custom read 1 primer containing 20 bases with a 12 bp cell barcode and 8 bp unique molecular identifier (UMI) and Read 2 being 50 bases containing transcript information.
Single-cell RNA-sequencing computational pipelines and analysis.

[3] = system: 3D-cultured intestinal organoids (ENR or ENR+CD); experiment: Lysozyme secretion assay (3D culture), normalized to ATP
Description: Lysozyme assay (3D culture). ISC-enriched organoids cultured in 3D Matrigel with ENRCV media were passaged to 48-well plate in 3D Matrigel with ENRCV. At day zero, media were replaced to ENR or ENRCD with or without indicated compounds, and media were replaced every other day. At day six, cells were washed twice with basal media and treated with carbamylcholine chloride (Sigma, C4382) for 3 hours. Media were collected and lysozyme activity was measured by EnzChek Lysozyme Assay Kit (ThermoFisher, E22013).
Lysozyme secretion assay. ISC-enriched organoids in 3D Matrigel culture were passaged to a 48- or 96-well plate and cultured with ENR or ENR+CD media containing DMSO or each drug for 6 days. DMSO- or drug-containing media were changed every other day. On day 6, cells were washed with basal media twice and treated with basal media with or without 10 μM carbamoylcholine chloride for 3 h in a CO2 incubator at 37° C. A part of the conditioned media was collected and used for lysozyme assay (Thermo, E-22013) following the manufacturer's instruction. The fluorescence was measured using excitation/emission of 485/530 nm. CellTiter-Glo 3D Reagent (Promega, G9681) was added afterward, and the cell culture plate was incubated on an orbital shaker at RT for 30 min to induce cell lysis and to stabilize the luminescent signal. The solution was replaced to a 96-well white microplate, and luminescent signals were measured by a microplate reader (infinite M200, Tecan). The standard curve was prepared by diluting recombinant ATP (Promega, P1132). For both assays, a polynomial cubic curve was fitted to a set of standard data, and each sample value was calculated on the Microsoft Excel.

[4] = stem II/III, day 0.25-2, FDR<0.05

Compound: O=C(/C=C\n1cnc(-c2cc(C(F)(F)F)cc(C(F)(F)F)c2)n1)NNc1cnccn1 [KPT-330]
- Dose.FC.LYZ.S ([1]; 0.02 uM): −0.004 log2 fold change
- Dose.FC.LYZ.S ([1]; 0.04 uM): −0.077 log2 fold change
- Dose.FC.LYZ.S ([1]; 0.08 uM): 0.134 log2 fold change
- Dose.FC.LYZ.S ([1]; […]): 0.215 log2 fold change
- increase in stimulated LYZ secretion (LYZ.S) relative to ENR+CD control ([1]; validated dose-treatments, mean fold change vs ENR+CD+DMSO): 50-75%
- day 6 Paneth cell odds ratio (OR), treated vs control ([2]; 160 nM KPT-330 in ENR+CD): ~2
- organoid cell type composition over differentiation time course ([2]; 160 nM KPT-330 in ENR+CD vs ENR+CD, day 0.25-6): enhances stem conversion to mature cells; also recorded: relative depletion of stem I (and stem II & III) and enteroendocrine cells over time along with the corresponding enrichment of enterocytes and Paneth cells
- Atf3 (ATF3) expression ([2]; KPT-330 treated vs control cells): upregulated
- active / quiescent ISC signature in early stem cell populations ([2]; early stem II/III cells): induces a quiescent ISC signature and reduces an active ISC signature; also recorded: transition into quiescence
- GSEA hallmark programs: mitogen-driven signaling (E2F, MYC targets, G2M checkpoint) [2, 4]: suppresses programs downstream of mitogen-driven signaling
- GSEA hallmark programs: stress response (NFkB signaling, hypoxia, inflammatory response) [2, 4]: up-regulating programs broadly resembling a complex stress response
- enrichment, treatment day 4-6 (by LYZ secretion assay) ([3]; 2-day treatment within 6-day ENR+CD differentiation, read at day 6): minorly enriched
- most effective dose among tested concentrations (LYZ secretion) ([3]; 6 days ENR+CD, basal and Cch-stimulated): 160 nM
- Paneth cell-specific activity (lysozyme assay) in conventional ENR culture ([3]; ENR media, 3-D, 6 days): enhancing Paneth cell-specific activity
- Paneth cell activity (LYZ secretion, basal and Cch-stimulated), dose dependence ([3]; up to 160 nM, 6 days ENR+CD): enhanced Paneth cell activity in a dose-dependent manner
